{
  "source": "ChEMBL document CHEMBL5137044",
  "about": "“Expansion of the S-CN-DABO scaffold to exploit the impact on inhibitory activities against the non-nucleoside HIV-1 reverse transcriptase” (Eur J Med Chem, 2022)",
  "key": {"[1]": {"assay": "Tmax in Sprague-Dawley rat at 10 mg/kg,po measured upto 24 hrs by LC-MS/MS analysis", "assay_type": "ADME, organism-based", "settings": "in vivo"}, "[2]": {"assay": "AUC (0 to t) in Sprague-Dawley rat at 1 mg/kg,iv measured upto 24 hrs by LC-MS/MS analysis", "assay_type": "ADME, organism-based", "set-up": "dose 1 mg/kg, time < 24 hrs, route iv", "settings": "in vivo"}, "[3]": {"assay": "C0 in Sprague-Dawley rat at 1 mg/kg,iv measured upto 24 hrs by LC-MS/MS analysis", "assay_type": "ADME, organism-based", "settings": "in vivo"}, "[4]": {"assay": "Acute toxicity in healthy mouse assessed as kidney damage at 1 g/Kg,IG monitored for 2 weeks by HE staining based assay", "assay_type": "tissue-based", "settings": "in vivo, po, 1000 mg/kg, 336 h"}, "[5]": {"assay": "Tmax in Sprague-Dawley rat at 1 mg/kg,iv measured upto 24 hrs by LC-MS/MS analysis", "assay_type": "ADME, organism-based", "settings": "in vivo"}, "[6]": {"test_system": "Human immunodeficiency virus 1", "assay": "Antiviral activity against drug-resistant HIV-1 Y188L mutant infected in human MT4 cells assessed as reduction in virus-induced cytopathic effect incubated for 5 days by MTT assay", "assay_type": "functional, organism-based", "settings": "Human immunodeficiency virus 1, Y188L mutant, MT4, 120 h"}, "[7]": {"assay": "Fold resistance, ratio of EC50 for antiviral activity against drug-resistant HIV-1 L100I mutant infected in human MT4 cells to EC50 for antiviral activity against […] HIV-1 infected in human MT4 cells", "assay_type": "functional"}, "Cytochrome P450 2C19": {"molecular_target": "Cytochrome P450 2C19 (Homo sapiens, UniProt P33261)", "sequence (P33261 whole entry)": "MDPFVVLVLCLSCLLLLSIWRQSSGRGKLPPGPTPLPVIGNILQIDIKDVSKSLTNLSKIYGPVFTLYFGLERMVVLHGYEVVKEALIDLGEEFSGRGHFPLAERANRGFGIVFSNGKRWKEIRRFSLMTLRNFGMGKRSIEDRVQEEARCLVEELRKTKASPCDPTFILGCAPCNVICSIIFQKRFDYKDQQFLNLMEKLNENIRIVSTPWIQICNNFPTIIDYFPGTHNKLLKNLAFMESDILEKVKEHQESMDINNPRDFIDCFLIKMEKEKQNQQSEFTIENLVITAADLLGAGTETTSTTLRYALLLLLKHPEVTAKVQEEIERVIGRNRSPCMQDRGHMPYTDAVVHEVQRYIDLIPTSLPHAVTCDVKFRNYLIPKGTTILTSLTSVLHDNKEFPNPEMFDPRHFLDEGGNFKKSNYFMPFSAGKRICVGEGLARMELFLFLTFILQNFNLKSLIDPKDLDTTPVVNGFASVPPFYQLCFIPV", "assay": "Inhibition of CYP2C19 in human liver microsomes using s-mephenytoin as substrate incubated for 15 to 40 mins in presence of NADPH", "assay_type": "ADME, Microsome"}, "[8]": {"assay": "Apparent volume of distribution in Sprague-Dawley rat at 10 mg/kg,po measured upto 24 hrs by LC-MS/MS analysis", "assay_type": "ADME, organism-based", "settings": "in vivo"}, "Cytochrome P450 1A2": {"molecular_target": "T1, Cytochrome P450 1A2 (Homo sapiens, UniProt P05177)", "T1 sequence (P05177 whole entry)": "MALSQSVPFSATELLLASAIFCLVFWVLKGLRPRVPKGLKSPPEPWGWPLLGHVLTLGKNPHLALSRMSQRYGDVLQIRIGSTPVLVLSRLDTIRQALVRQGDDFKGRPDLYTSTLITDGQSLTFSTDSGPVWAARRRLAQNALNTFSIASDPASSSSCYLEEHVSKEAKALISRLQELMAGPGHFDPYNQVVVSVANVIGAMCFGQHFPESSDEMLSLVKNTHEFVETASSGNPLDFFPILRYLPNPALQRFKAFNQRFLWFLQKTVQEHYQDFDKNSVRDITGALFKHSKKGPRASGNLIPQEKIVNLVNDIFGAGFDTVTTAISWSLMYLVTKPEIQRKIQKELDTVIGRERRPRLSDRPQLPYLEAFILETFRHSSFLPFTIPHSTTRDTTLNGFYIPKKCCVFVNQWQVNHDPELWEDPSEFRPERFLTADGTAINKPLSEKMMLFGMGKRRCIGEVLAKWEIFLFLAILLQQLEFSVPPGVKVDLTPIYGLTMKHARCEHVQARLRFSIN", "assay": "Inhibition of CYP1A2 in human liver microsomes using phenacetin as substrate incubated for 15 to 40 mins in presence of NADPH", "assay_type": "ADME, Microsome"}, "[9]": {"assay": "Acute toxicity in healthy mouse assessed as heart damage at 1 g/Kg,IG monitored for 2 weeks by HE staining based assay", "assay_type": "tissue-based", "settings": "in vivo, po, 1000 mg/kg, 336 h"}, "[10]": {"assay": "Fold resistance, ratio of EC50 for antiviral activity against drug-resistant HIV-1 Y188L mutant infected in human MT4 cells to EC50 for antiviral activity against […] HIV-1 infected in human MT4 cells", "assay_type": "functional"}},
  "data": [
    {"smiles": "Cc1c(C(C#N)c2c(F)cccc2F)nc(SC(C)C)[nH]c1=O", "note": "(configuration not stated)", "values": [
      {"measurement": "Tmax", "setting": "[1]", "value": 3.5, "unit": "h"},
      {"measurement": "AUC(0-t) at 24 h", "setting": "[2]", "value": 8280, "unit": "ng·h/mL"},
      {"measurement": "C0 at 24 h", "setting": "[3]", "value": 9310, "unit": "ng/mL"},
      {"measurement": "Activity", "setting": "[4]", "value": "Non-Toxic"},
      {"measurement": "Tmax", "setting": "[5]", "value": 4.8, "unit": "min"},
      {"measurement": "EC50", "setting": "[6]", "value": 69, "unit": "µM"},
      {"measurement": "Ratio EC50", "setting": "[7]", "value": 50},
      {"measurement": "IC50", "setting": "Cytochrome P450 2C19", "value": 35.3, "unit": "µM"},
      {"measurement": "Vz", "setting": "[8]", "value": 0.47537, "unit": "L/kg"},
      {"measurement": "IC50", "setting": "Cytochrome P450 1A2", "value": "> 50", "unit": "µM"},
      {"measurement": "Activity", "setting": "[9]", "value": "Non-Toxic"},
      {"measurement": "Ratio EC50", "setting": "[10]", "value": 3319}
    ]}
  ]
}
